Source: patent publication US20240398783A1, “Compounds and Pharmaceutical Compositions Comprising Inhibitors of Amyloid Peptide Interactions with Glycosaminoglycans, Methods of Treatment and Use Thereof” (Gismo Therapeutics, Inc., priority 2021, published 2024)
Where a name gives a salt, the structure may show the parent alone.

The compounds below were run against TDP-43 binding to purified human brain membranes (Homo sapiens, UniProt Q13148) (assay: Inhibition of TDP-43 binding to purified human brain cell membranes (ELISA)). Details: TDP43/Membrane Activity (IC-50), TDP-43, purified human brain membranes.
Description: Purified human brain cell membranes were prepared by differential centrifugation as follows. Five grams of frozen human brain postmortem tissue (obtained from University of Kentucky Alzheimer's Disease Center Tissue Bank) was homogenized in 50 ml HEPES-Buffered sucrose (0.32M sucrose, 4 mM HEPES pH7.4, protease inhibitors) with a motor driven glass-teflon homogenizer. After removing nuclear and cell debris by centrifugation of homogenates at 1,000×g for 10 min at 4 degree Celsius, post-nuclear supernatant was centrifuged at 100,000×g for 30 minutes to yield the crude membrane pellet. Crude membrane pellet was re-suspended in 0.32M sucrose, then centrifuged again at 100,000×g for 30 minutes to yield washed membrane pellet. Membrane pellet was resuspended in sterile PBS (pH7.4), quickly frozen, and kept in aliquots at −80 degrees Celsius. This preparation contains human brain cell membranes. Protein concentration was measured with BCA protein assay kit (Pierce Cat. No. 23227). Purified brain membranes were diluted to 0.01 mg/ml in PBS (pH 7.4) and then added to a 96 well polystyrene ELISA plate (NUNC Cat. No. 449824; 100 μl per well). Plates were incubated Over Night (ON) at 4 degrees Celsius. Following the incubation, the plate was washed consecutively, by immersion, with de-ionized water and PBS (pH 7.4). The ELISA plate was then blocked with nonfat milk (2%, 200 μl per well) for 2 hours at Room Temperature (RT). Following blocking, the plate was washed with de-ionized water then PBS (pH 7.4). GBAPs were dissolved and diluted in PBS (pH 6.5, supplemented with 0.1% BSA) at desired concentrations, added to the ELISA plates coated with brain membranes (100 μl per well) and incubated for 2 hours at RT with gentle shaking. Following incubation, the plate was washed with de-ionized water and three times with PBS (pH 6.5) plus Tween. Bound GBAP was detected by a monoclonal antibody specific for that GBAP, followed by incubation with secondary antibody conjugated to horseradish peroxidase (HRP). Antibody was diluted in PBS (pH6.5 supplemented with 1% BSA). Following each incubation with antibody, the plate was washed with de-ionized water and three times with PBS (pH6.5) wash buffer containing 0.1% Tween. The peroxidase substrate chromogen, TMB (Dako Cat. No. S1599) was added (100 μl per well) to the ELISA plate and incubated at room temperature. After 5 minutes ELISA Stop Solution (hydrochloric acid 1N, sulfuric acid 3N) was added (100 μl per well) to stop the peroxidase catalyzed colorimetric reaction. The Optical Density of the samples was measured at 450 nm using an ELISA plate reader (BioTek Synergy H1). Following color development, the % inhibition compared to control was determined. IC-50s were calculated using GraphPad Prism software.
The assay was performed as described in Example 49, with the following modifications. Following to coating the plates with purified human brain cell membranes, plates were washed as described. The compounds were dissolved in DMSO at 10 mM final concentration and further diluted prior to assay. DMSO concentration in the screening well was up to 2%. Individual compounds were co-incubated with TDP-43 on plates coated with brain membranes. TDP43 from R&D System (Cat. No. AP-190) was quickly frozen and kept in aliquots at −80 degrees Celsius. TDP-43 dissolved in PBS (pH 6.5, supplemented with BSA, 0.1%) was added to the ELISA plate (100 μl per well) and incubated for 2 hours at RT with gentle shaking. Following the incubation, the plate was washed with de-ionized water and three times with PBS (pH 6.5) plus Tween. Bound TDP-43 was detected by Anti-TDP43 Monoclonal Antibody (R&D System Cat. No. MAB7778), followed by secondary anti-IgG antibody conjugated to HRP (R&D System, Cat. No. HAF007). Following to color development with TMB, as described in Example 49, the Optical Density of the samples was measured at 450 nm using an ELISA plate reader. […]

Chain of TDP-43 binding to purified human brain membranes (Q13148 whole entry): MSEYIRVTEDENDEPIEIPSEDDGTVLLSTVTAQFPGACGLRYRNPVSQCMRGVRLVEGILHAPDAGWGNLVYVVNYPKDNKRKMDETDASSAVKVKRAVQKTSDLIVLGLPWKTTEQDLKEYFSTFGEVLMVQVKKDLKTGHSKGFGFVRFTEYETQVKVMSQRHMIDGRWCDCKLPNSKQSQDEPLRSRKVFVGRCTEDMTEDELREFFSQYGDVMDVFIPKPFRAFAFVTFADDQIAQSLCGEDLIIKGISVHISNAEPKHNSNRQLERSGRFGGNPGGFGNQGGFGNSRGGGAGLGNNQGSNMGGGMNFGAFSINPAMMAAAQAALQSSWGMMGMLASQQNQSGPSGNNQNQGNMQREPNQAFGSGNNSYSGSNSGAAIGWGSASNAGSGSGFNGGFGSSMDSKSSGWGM

In order of rising IC50:
1. C/C(=N\Nc1ncnc2cc(Cl)ccc12)c1ccc(-n2cnc(C)c2C)nc1 [Compound 16, 7-chloro-4-(2-(1-(6-(4,5-dimethyl-1H-imidazol-1-yl)pyridin-3-yl)ethylidene)hydrazineyl)quinazoline phosphate]  2.11 µM
2. Cc1ncn(-c2ccc(/C=N\Nc3ncnc4cc(Cl)ccc34)cn2)c1C [Compound 15, 7-chloro-4-(2-((6-(4,5-dimethyl-1H-imidazol-1-yl)pyridin-3-yl)methylene)hydrazineyl)quinazoline hydrochloride]  3.01 µM
3. Clc1ccc2c(Nc3ccc(-n4cncn4)nc3)ncnc2c1 [Compound 34, N-(6-(1H-1,2,4-triazol-1-yl)pyridin-3-yl)-7-chloroquinazolin-4-amine phosphoric acid salt]  3.67 µM
4. Clc1ccc2c(N/N=C/c3ccc(-n4ccnc4)nc3)ccnc2c1 [Compound 14, (E)-4-(2-((6-(1H-imidazol-1-yl)pyridin-3-yl)methylene)hydrazineyl)-7-chloroquinoline hydrochloride]  4.01 µM
5. Cc1ncn(-c2ncc(Nc3ncnc4cc(Cl)ccc34)cc2O)c1C [Compound 40, 5-((7-chloroquinazolin-4-yl)amino)-2-(4,5-dimethyl-1H-imidazol-1-yl)pyridin-3-ol phosphoric acid salt]  5.28 µM
6. Clc1ccc2c(N/N=C/c3ccc(-n4ccnc4)cc3)ccnc2c1 [Compound 38, 4-(2-(4-(1H-imidazol-1-yl)benzylidene)hydrazineyl)-7-chloroquinoline dihydrochloride]  6.17 µM
7. Clc1ccc2c(N/N=C/c3ccc(-n4cccn4)cc3)ccnc2c1 [Compound 3, (E)-4-((E)-(4-(1H-pyrazol-1-yl)benzylidene)hydrazono)-7-chloro-1,4-dihydroquinoline]  6.57 µM
8. Cc1ncn(-c2ccc(Nc3ncnc4cc(Cl)ccc34)cn2)c1C [Compound 25, 7-chloro-N-(6-(4,5-dimethyl-1H-imidazol-1-yl)pyridin-3-yl)quinazolin-4-amine]  11.5 µM
9. CC(=NNc1ccnc2cc(Cl)ccc12)c1ccc(-n2cnc(C)c2C)nc1 [Compound 22, 7-chloro-4-(2-(1-(6-(4,5-dimethyl-1H-imidazol-1-yl)pyridin-3-yl)ethylidene)hydrazineyl)quinoline]  12.2 µM
10. Fc1cc(/C=N/Nc2ccnc3cc(Cl)ccc23)ccc1-n1ccnc1 [Compound 35, (E)-7-chloro-4-(2-(3-fluoro-4-(1H-imidazol-1-yl)benzylidene)hydrazineyl)quinoline hydrochloride]  13.1 µM
11. Fc1ccc2c(N/N=C/c3ccc(-n4ccnc4)cc3)ccnc2c1 [Compound 5, (E)-4-(2-(4-(1H-imidazol-1-yl)benzylidene)hydrazinyl)-7-fluoroquinoline]  14.1 µM
12. C/C(=N\Nc1ncnc2cc(Cl)ccc12)c1ccc(-n2cc[n+](C)c2)nc1 [Compound 17, (E)-1-(5-(1-(2-(7-chloroquinazolin-4-yl)hydrazineylidene)ethyl)pyridin-2-yl)-3-methyl-1H-imidazol-3-ium iodide phosphoric acid salt]  22.5 µM
13. C(=N\Nc1ccc2c3c(cccc13)CC2)/c1ccc(-n2ccnc2)cc1 [Compound 8, (E)-1-(4-((2-(1,2-dihydroacenaphthylen-5-yl)hydrazineylidene)methyl)phenyl)-1H-imidazole]  25.2 µM
14. Clc1ccc2c(Nc3ccc(-n4cncn4)nc3)ccnc2c1 [Compound 44, N-(6-(1H-1,2,4-triazol-1-yl)pyridin-3-yl)-7-chloroquinolin-4-amine]  26.2 µM
15. C/C(=N\Nc1ncnc2cc(F)ccc12)c1ccc(-n2cc[n+](C)c2)nc1 [Compound 26, (E)-1-(5-(1-(2-(7-fluoroquinazolin-4-yl)hydrazineylidene)ethyl)pyridin-2-yl)-3-methyl-1H-imidazol-3-ium phosphoric acid salt]  27.2 µM
16. CC(=NNc1ccnc2cc(Cl)ccc12)c1ccc(-n2ccnc2)cc1 [Compound 36, 4-(2-(1-(4-(1H-imidazol-1-yl)phenyl)ethylidene)hydrazineyl)-7-chloroquinoline phosphate]  48.6 µM

Same assay, conditions: TDP-43, purified human brain membranes; read-out: TDP43/Membrane Activity (IC-50)

In order of falling IC50:
1. C/C(=N\Nc1ncnc2cc(Cl)ccc12)c1ccc(-n2cc(C)nc2C)nc1 [Compound 18, (E)-7-chloro-4-(2-(1-(6-(2,4-dimethyl-1H-imidazol-1-yl)pyridin-3-yl)ethylidene)hydrazineyl)quinazoline phosphoric acid salt]  9.28 µM
2. CC(=NNc1ncnc2cc(Cl)ccc12)c1ccnc(-n2cnc(C)c2C)c1 [Compound 28, 7-chloro-4-(2-(1-(2-(4,5-dimethyl-1H-imidazol-1-yl)pyridin-4-yl)ethylidene)hydrazineyl)quinazoline]  8.93 µM
3. Clc1ccc2c(Nc3ccc(-n4ccnc4)nc3)ncnc2c1 [Compound 41, N-(6-(1H-imidazol-1-yl)pyridin-3-yl)-7-chloroquinazolin-4-amine]  8.32 µM
4. C/C(=N\Nc1ncnc2cc(F)ccc12)c1ccc(-n2cnc(C)c2C)nc1 [Compound 21, (E)-4-(2-(1-(6-(4,5-dimethyl-1H-imidazol-1-yl)pyridin-3-yl)ethylidene)hydrazineyl)-7-fluoroquinazoline]  7.12 µM
5. C/C(=N\Nc1nncc2cc(Cl)ccc12)c1ccc(-n2cc(C)nc2C)nc1 [Compound 24, (E)-6-chloro-1-(2-(1-(6-(2,4-dimethyl-1H-imidazol-1-yl)pyridin-3-yl)ethylidene)hydrazineyl)phthalazine]  4 µM
6. Cc1cc(-n2ccnc2)ccc1/C=N/Nc1ccnc2cc(Cl)ccc12 [Compound 1, (E)-4-((E)-(4-(1H-imidazol-1-yl)-2-methylbenzylidene)hydrazono)-7-chloro-1,4-dihydroquinoline]  3.42 µM
7. C/C(=N\Nc1ncnc2cc(Cl)ccc12)c1ccc(-n2cc(C)nc2C)nc1 [Compound 27, (E)-7-chloro-4-(2-(1-(6-(2,4-dimethyl-1H-imidazol-1-yl)pyridin-3-yl)ethylidene)hydrazineyl)quinazoline hydrochloride]  2.98 µM
